melting point	Structure (SMILES)
157 to 161 °C	OB1OCc2ccc(Sc3ccc(Cl)cc3)cc21 [C88, 6-(4-chlorophenylthio)benzo[c][1,2]oxaborol-1(3H)-ol]
154 to 161 °C	[O-][S+](c1ccc(Cl)cc1)c1ccc2c(c1)B(O)OC2 (centres unmarked) [C89, 6-(4-chlorophenylsulfinyl)benzo[c][1,2]oxaborol-1(3H)-ol]
124 to 128 °C	Cc1ccc2c(c1)COB2O [C8, 5-methylbenzo[c][1,2]oxaborol-1(3H)-ol]
85 to 95 °C	CN(c1ccc2c(c1)COB2O)S(=O)(=O)c1ccccc1 [C30, N-(1-hydroxy-1,3-dihydrobenzo[c][1,2]oxaborol-5-yl)-N-methylbenzenesulfonamide]
102 to 104 °C	COc1ccc2c(c1)COB2O [C7, 5-methoxybenzo[c][1,2]oxaborol-1(3H)-ol]
142 to 152 °C	O=S(=O)(c1ccccc1)N(c1ccc2c(c1)COB2O)S(=O)(=O)c1ccccc1 [C91, N-(1-hydroxy-1,3-dihydrobenzo[c][1,2]oxaborol-5-yl)-N-(phenylsulfonyl)benzenesulfonamide]
241 to 250 °C	OCc1cccc2c1B(O)OC2 [C64, 7-(hydroxymethyl)benzo[c][1,2]oxaborol-1(3H)-ol]
120 to 123 °C	CN(C)c1ccc2c(c1)B(O)OC2 [C51, 6-(dimethylamino)benzo[c][1,2]oxaborol-(3H)-ol]
110 to 117.5 °C	OB1OCc2ccc(F)cc21 [C13, 6-fluorobenzo[c][1,2]oxaborol-1(3H)-ol]
134 to 137 °C	CCOC(=O)COc1ccc2c(c1)COB2O [C41, Ethyl 2-(1-hydroxy-1,3-dihydrobenzo[c][1,2]oxaborol-5-yloxy)acetate]
185 to 189 °C	OB1OCc2cc3c(cc21)OCO3 [C69, 5,6-methylenedioxybenzo[c][1,2]oxaborol-1(3H)-ol]
97 to 101 °C	OB1OCc2ccc(Oc3ccc(OC(F)(F)F)cc3)cc21 [C29, 6-(4-(trifluoromethoxy)phenoxy)benzo[c][1,2]oxaborol-1(3H)-ol]
157 to 163 °C	O=S(=O)(c1ccc(Cl)cc1)c1ccc2c(c1)B(O)OC2 [C90, 6-(4-chlorophenylsulfonyl)benzo[c][1,2]oxaborol-1(3H)-ol]
145 to 151 °C	OB1OCc2ccc(-n3cc(Sc4ccccc4)c4cc(Cl)ccc43)cc21 [C80, 6-(5-chloro-3-(phenylthio)-1H-indol-1-yl)benzo[c][1,2]oxaborol-1(3H)-ol]
107 to 111 °C	Cc1cccc2c1B(O)OC2 [C65, 7-methylbenzo[c][1,2]oxaborol-1(3H)-ol]
126 to 133 °C	OB1OCc2ccc(NCc3ccccc3)cc21 [C77, 6-(benzylamino)benzo[c][1,2]oxaborol-1(3H)-ol]
148 to 153 °C	N#Cc1ccc(Oc2cccc3c2B(O)OC3)cc1 [C74, 4-(1-hydroxy-1,3-dihydrobenzo[c][1,2]oxaborol-7-yloxy)benzonitrile]
135 to 138 °C	OB1OCc2ccc(Sc3ccc(F)cc3)cc21 [C44, 6-(4-fluorophenylthio)benzo[c][1,2]oxaborol-1(3H)-ol]
139 to 143 °C	OB1OCc2ccc3ccccc3c21 [C11, naphtho[1,2-c][1,2]oxaborol-1(3H)-ol]

melting point	Structure (SMILES)
120 to 124 °C	COc1ccc2c(ccn2-c2ccc3c(c2)B(O)OC3)c1 [C68, 6-(5-methoxy-1H-indol-1-yl)benzo[c][1,2]oxaborol-1(3H)-ol]
135 to 141 °C	COc1ccc2c(c1)c(Sc1ccccc1)cn2-c1ccc2c(c1)B(O)OC2 [C72, 6-(5-methoxy-3-(phenylthio)-1H-indol-1-yl)benzo[c][1,2]oxaborol-1(3H)-ol]
180 to 192 °C	COc1ccc(S(=O)(=O)c2ccc3c(c2)B(O)OC3)cc1 [C33, 6-(4-methoxyphenylsulfonyl)benzo[c][1,2]oxaborol-1(3H)-ol]
119 to 130 °C	OB1OCc2ccc(Oc3ccc(Cl)cc3)cc21 [C20, 6-(4-chlorophenoxy)benzo[c][1,2]oxaborol-1(3H)-ol]
79 to 88 °C	[O-][S+](c1ccc(C(F)(F)F)cc1)c1ccc2c(c1)B(O)OC2 (centres unmarked) [C93, 6-(4-(trifluoromethyl)phenylsulfinyl)benzo[c][1,2]oxaborol-1(3H)-ol]
115 to 123 °C	OB1OCc2ccc(N(Cc3ccccc3)Cc3ccccc3)cc21 [C78, 6-(dibenzylamino)benzo[c][1,2]oxaborol-1(3H)-ol]
146 to 149 °C	N#Cc1cccc(Oc2ccc3c(c2)B(O)OC3)c1 [C19, 3-(1-hydroxy-1,3-dihydrobenzo[c][1,2]oxaborol-6-yloxy)benzonitrile]
120 to 124 °C	OB1OCc2cccc(F)c21 [C86, 7-fluorobenzo[c][1,2]oxaborol-1(3H)-ol]
> 257 °C	OCc1cc2c(cc1Br)COB2O [C59, 5-bromo-6-(hydroxymethyl)benzo[c][1,2]oxaborol-1(3H)-ol]
149 to 154 °C	OB1OCc2ccc(-n3ccc4cc(Cl)ccc43)cc21 [C75, 6-(5-chloro-1H-indol-1-yl)benzo[c][1,2]oxaborol-1(3H)-ol]
> 250 °C	OB1OCc2cc3c(cc21)COB3O [C60, 3,7-dihydro-1,5-dihydroxy-1H,3H-Benzo[2-c: 4,5-c′]bis[1,2]oxaborole]
142 to 145 °C	Nc1cc2c(cc1F)COB2O [C70, 6-amino-5-fluorobenzo[c][1,2]oxaborol-1(3H)-ol]
95 to 100 °C	COc1ccc(Sc2ccc3c(c2)B(O)OC3)cc1 [C32, 6-(4-methoxyphenylthio)benzo[c][1,2]oxaborol-1(3H)-ol]
126 to 129 °C	COc1ccc(Oc2ccc3c(c2)B(O)OC3)cc1 [C31, 6-(4-methoxyphenoxy)benzo[c][1,2]oxaborol-1(3H)-ol]
158 to 163 °C	O=C(COc1ccc2c(c1)COB2O)N1CCCCC1 [C46, 2-(1-hydroxy-1,3-dihydrobenzo[c][1,2]oxaborol-5-yloxy)-1-(piperidin-1-yl)ethanone]
111 to 113 °C	OB1OCc2ccc(Sc3ccc(C(F)(F)F)cc3)cc21 [C92, 6-(4-(trifluoromethyl)phenylthio)benzo[c][1,2]oxaborol-1(3H)-ol]
139 to 144 °C	Cc1ccc(Sc2ccc3c(c2)B(O)OC3)cc1 [C95, 6-(p-tolylthio)benzo[c][1,2]oxaborol-1(3H)-ol]
98 to 105 °C	OB1OCc2ccc(Oc3ccc(C(F)(F)F)cc3)cc21 [C87, 6-(4-(trifluoromethyl)phenoxy)benzo[c][1,2]oxaborol-1(3H)-ol]
186 to 193 °C	O=C(Nc1ccc2c(c1)B(O)OC2)c1ccccc1 [C52, N-(1-hydroxy-1,3-dihydrobenzo[c][1,2]oxaborol-6-yl)benzamide]

melting point	Structure (SMILES)
128 to 132 °C	OB1OCc2ccc(N3CCOCC3)cc21 [C56, 6-morpholinobenzo[c][1,2]oxaborol-1(3H)-ol]
135 to 141 °C	N#CCCSc1cn(-c2ccc3c(c2)B(O)OC3)c2ccccc12 [C67, 3-(1-(1-hydroxy-1,3-dihydrobenzo[c][1,2]oxaborol-6-yl)-1H-indol-3-ylthio)propanenitrile]
159 to 163 °C	OB1OCc2ccc(-n3cc(Sc4ccccc4)c4ccccc43)cc21 [C66, 6-(3-(phenylthio)-1H-indol-1-yl)benzo[c][1,2]oxaborol-1(3H)-ol]
95 to 99 °C	OB1OCc2ccc(Oc3ccccc3)cc21 [C21, 6-phenoxybenzo[c][1,2]oxaborol-1(3H)-ol]
149 to 154 °C	COc1ccc2c(c1)c(SCCC#N)cn2-c1ccc2c(c1)B(O)OC2 [C73, 3-(1-(1-hydroxy-1,3-dihydrobenzo[c][1,2]oxaborol-6-yl)-5-methoxy-1H-indol-3-ylthio)propanenitrile]
176 to 185 °C	CC(=O)Nc1ccc2c(c1)B(O)OC2 [C63, N-(1-hydroxy-1,3-dihydrobenzo[c][1,2]oxaborol-6-yl)acetamide]
163 to 166 °C	O=C(O)COc1ccc2c(c1)COB2O [C42, 2-(1-hydroxy-1,3-dihydrobenzo[c][1,2]oxaborol-5-yloxy)acetic acid]
190 to 195 °C	O=C(COc1ccc2c(c1)COB2O)N1CCN(c2ncccn2)CC1 [C47, 2-(1-hydroxy-1,3-dihydrobenzo[c][1,2]oxaborol-5-yloxy)-1-(4-(pyrimidin-2-yl)piperazin-1-yl)ethanone]
159 to 164 °C	OB1OCc2cc(F)c(NCc3ccccc3)cc21 [C71, 6-(benzylamino)-5-fluorobenzo[c][1,2]oxaborol-1(3H)-ol]
117 to 120 °C	CSc1ccc(Sc2ccc3c(c2)B(O)OC3)cc1 [C94, 6-(4-(methylthio)phenylthio)benzo[c][1,2]oxaborol-1(3H)-ol]
> 225 °C	N#CCCSc1cn(-c2ccc3c(c2)B(O)OC3)c2ccc(Cl)cc12 [C76, 3-(5-chloro-1-(1-hydroxy-1,3-dihydrobenzo[c][1,2]oxaborol-6-yl)-1H-indol-3-ylthio)propanenitrile]
121 to 124 °C	OB1OCc2ccc(Sc3ccccc3)cc21 [C28, 6-(phenylthio)benzo[c][1,2]oxaborol-1(3H)-ol]
159 to 161 °C	OB1OCc2ccc(N3CCN(c4ccccc4)CC3)cc21 [C53, 6-(4-phenylpiperazin-1-yl)benzo[c][1,2]oxaborol-1(3H)-ol]
175 to 184 °C	O=S(=O)(Nc1ccc2c(c1)B(O)OC2)c1ccccc1 [C62, N-(1-hydroxy-1,3-dihydrobenzo[c][1,2]oxaborol-6-yl)benzenesulfonamide]
135 to 140 °C	OB1OCc2ccc(-n3ccc4ccccc43)cc21 [C55, 6-(1H-indol-1-yl)benzo[c][1,2]oxaborol-1(3H)-ol]
147 to 150 °C	N#Cc1cccc(COc2ccc3c(c2)COB3O)c1 [C96, 3-((1-hydroxy-1,3-dihydrobenzo[c][1,2]oxaborol-5-yloxy)methyl)benzonitrile]
162 to 167 °C	O=[N+]([O-])c1cc2c(cc1F)COB2O [C58, 5-fluoro-6-nitrobenzo[c][1,2]oxaborol-1(3H)-ol]
135 to 138 °C	OB1OCc2ccc(N3CCN(c4ccccn4)CC3)cc21 [C48, 6-(4-(pyridin-2-yl)piperazin-1-yl)benzo[c][1,2]oxaborol-1(3H)-ol]
